Test results published in patent US5492892A, “Endothelin antagonists” (priority 1994, dated 1996).
Bridge positions count the residues as written; N and C are the ends. Ends that are not written are not given here.

Columns and labels:
vascular beds = conditions: a number of vascular beds; Anggard et al.; cited from earlier work
[1] = tested on: isolated, perfused guinea pig lung; experiment: Vasoconstrictor (agonist) activity, isolated perfused lung preparation, pulmonary artery pressure
Experimental: Isolated, Perfused Guinea Pig Lung: Another procedure for determining the vasoconstrictor action of the endothelin-active peptides and the blocking action of endothelin antagonists utilizes isolated, perfused guinea pig lung as described in more detail in Example 4, infra.
(§1) The vasoconstrictor activity of Et-1 or Et-3 alone, or in the presence of antagonist, was determined using an isolated, perfused lung preparation (Horgan, M. J., et al. J. Appl. Phsysiol., 63, 93-104 (1987)). Briefly, Hartley guinea pigs (400-500 g) of either sex were anesthetized with 50 mg/kg pentobarbital sodium. Following a tracheotomy, the thorax was opened, the lung and heart excised and the pulmonary artery cannulated. A wide cannula was placed in the left atrium. Perfusion was then started, within 5 min. of opening the thorax. The perfusion flow was set at 28 ml/min. When there was no visible sign of blood in the pulmonary venous effluent, recirculation of the perfusate was started, and pulmonary artery pressure was monitored. Endothelin activity was measured in an accumulative dose-dependent manner for agonist activity by addition of the peptides to a recirculating 300 ml bath. To assess antagonist activity, dose response curves with endothelin were done in the constant presence of antagonist.

[2] = literature reports; cited from earlier work
endothelin responses = conditions: Fabregat et al.; cited from earlier work
Et-1 receptor = conditions: competitive and dose dependent manner; Fabregat et al.; cited from earlier work
[3] = tested on: norepinephrine in perfused guinea pig lung; experiment: Specificity: lung preparations perfused with norepinephrine, with and without antagonist; conditions: Norepinephrine (10^-7 M); 5 minute preperfusion with 10^-7 M antagonist
Experimental: as §1
(§2) Specificity of [drawing 47] is illustrated in Table 2 which presents pressure increase data in similar lung preparations perfused with Et-3 and with other vasoconstrictor substances (alpha-thrombin and norepinephrine). As for the results shown in Table 1, pressure increase was determined on lung preparations with and without a 5 minute preperfusion step with 10^-7 M [drawing 48]

[4] = tested on: alpha-thrombin in perfused guinea pig lung; experiment: Specificity: lung preparations perfused with alpha-thrombin, with and without antagonist; conditions: α-Thrombin (10^-8 M); 5 minute preperfusion with 10^-7 M antagonist
Experimental: as §1, §2

[5] = tested on: Et-3 in perfused guinea pig lung; experiment: Specificity: lung preparations perfused with Et-3, with and without antagonist
Experimental: as §1, §2

[6] = tested on: Et-1 in Perfused Guinea Pig Lung; experiment: Antagonist activity against Et-1 in perfused guinea pig lung; conditions: for Pressure Increase Inhibition / Pressure Increase Ppa With Antagonist: antagonist 10^-7 M; for Pressure Increase Ppa With Antagonist: preperfused 5 min then coperfused
Experimental: as §1
The response with lungs preperfused, for 5 min. with [drawing 44] at a concentration of 10^-7 M before coperfusion with Et-1 was compared with the response determined on lungs perfused only with Et-1. (Results in both Tables 1 and 2 are based on the average of 4-7 determinations for each result).

[7] = target: endothelin receptors of the isolated, perfused guinea pig lung
[8] = target: endothelin receptors of the isolated, perfused guinea pig lung; remark: listed apart in the source
[9] = isolated, perfused guinea pig lung

CC[C@H](C)[C@H](NC(=O)[C@H](CC(=O)O)NC(=O)[C@H](CC(C)C)NC(=O)[C@H](Cc1c[nH]cn1)NC(=O)[C@@H]1CSSC[C@H](N)C(=O)N[C@@H](CO)C(=O)N[C@H]2CSSC[C@H](NC(=O)[C@H](CCC(=O)O)NC(=O)[C@H](CCCCN)NC(=O)[C@H](CC(=O)O)NC(=O)[C@H](CCSC)NC(=O)[C@H](CC(C)C)NC(=O)[C@H](CO)NC(=O)[C@H](CO)NC2=O)C(=O)N[C@@H](C(C)C)C(=O)N[C@@H](Cc2ccc(O)cc2)C(=O)N[C@@H](Cc2ccccc2)C(=O)N1)C(=O)N[C@H](C(=O)N[C@@H](Cc1c[nH]c2ccccc12)C(=O)O)[C@@H](C)CC [Et-1]
apparent potency order of vasoconstriction (vascular beds): Et-2>Et-1>Et-3
Pressure Increase Ppa Without Antagonist ([1]; Et-1 Conc. 2 × 10^-10 M): 2.3 cm H2 O
Pressure Increase Ppa Without Antagonist ([1]; Et-1 Conc. 10^-9 M): 6.1 cm H2 O
Pressure Increase Ppa Without Antagonist ([1]; Et-1 Conc. 10^-10 M): 1.2 cm H2 O
concentration at which Et-1 is active (dose-dependent increase in pulmonary artery pressure, Ppa) [1, 9]: 10^-10 M
concentration giving a maximal response (increase in Ppa) [1, 9]: 10^-8 M

NC[C@H](O)c1ccc(O)c(O)c1 [Norepinephrine]
Ppa Without antagonist ([1]; Norepinephrine (10^-7 M)): 1.3 cm H2 O

Et-2: endothelin isopeptide (CSCSSWLDKECVYFCHLDIIW; ends and bridges not checked; cysteine pairing not given here; UniProt P20800 49-69, looked up)
apparent potency order of vasoconstriction (vascular beds): Et-2>Et-1>Et-3

[Ala^3,11 ]Et-1: known Et-1 analog (Randall et al.) (CSASSLMDKEAVYFCHLDIIW; ends and bridges not checked; cysteine pairing not given here; UniProt P05305 53-73, looked up, variant C3A C11A)
endothelin activity [2]: shows endothelin activity

[Ala^4 ]Et-1: known Et-1 analog (Nakajima et al.) (CSCASLMDKECVYFCHLDIIW; ends and bridges not checked; cysteine pairing not given here; UniProt P05305 53-73, looked up, variant S4A)
endothelin activity [2]: show appreciable endothelin activity

[Ala^5 ]Et-1: known Et-1 analog (Nakajima et al.)
endothelin activity [2]: show appreciable endothelin activity

[Asn^8 ]Et-1: known Et-1 analog (Nakajima et al.) (CSCSSLMNKECVYFCHLDIIW; ends and bridges not checked; cysteine pairing not given here; UniProt P05305 53-73, looked up, variant D8N)
endothelin activity [2]: show appreciable endothelin activity

[D-Arg^1, D-Phe^5, D-Trp^7,9, Leu^11 ] substance P
blocking of endothelin responses (endothelin responses): blocks certain endothelin responses
inhibition of ^125 I-labelled Et-1 binding to an Et-1 receptor (Et-1 receptor): able to inhibit

[Dpr^1 -Asp^15 ]Et-1
Ppa With antagonist [3]: 1.3 cm H2 O
Ppa With antagonist [4]: 8.5 cm H2 O
Ppa With antagonist ([5]; Et-3 (10^-9 M), 5 minute preperfusion with 10^-7 M antagonist): 5.8 cm H2 O
antagonist activity against vasoconstricting substances other than Et-1 ([5]; lung preparations treated with Et-3, α-thrombin or norepinephrine): no antagonist activity
Pressure Increase Inhibition ([6]; Et-1 2 × 10^-10 M): 75%
Pressure Increase Ppa With Antagonist ([6]; Et-1 2 × 10^-10 M): 0.6 cm H2 O
Pressure Increase Inhibition ([6]; Et-1 10^-9 M): 65%
Pressure Increase Ppa With Antagonist ([6]; Et-1 10^-9 M): 2.1 cm H2 O
Pressure Increase Inhibition ([6]; Et-1 10^-10 M): 95%
Pressure Increase Ppa With Antagonist ([6]; Et-1 10^-10 M): 0.06 cm H2 O
blocking activity at higher doses of the analog ([6]; doses higher than 10^-7 M): did not substantially increase this blocking activity
agonist activity (increase in Ppa) ([1]; doses as high as 1×10^-6 M): essentially no agonist activity

[Dpr^1 -Asp^15 ]Et-1 (peptide)
Pressure Increase Inhibition (%) of the Et-1 response, lung preperfused and coperfused with 10^-7 M antagonist [7]: 95%

[Gly^6 ]Et-1: known Et-1 analog (Nakajima et al.) (CSCSSGMDKECVYFCHLDIIW; ends and bridges not checked; cysteine pairing not given here; UniProt P05305 53-73, looked up, variant L6G)
endothelin activity [2]: show appreciable endothelin activity

[Leu^9 ]Et-1: known Et-1 analog (Nakajima et al.) (CSCSSLMDLECVYFCHLDIIW; ends and bridges not checked; cysteine pairing not given here; UniProt P05305 53-73, looked up, variant K9L)
endothelin activity [2]: show appreciable endothelin activity

[Phe^13 ]Et-1: known Et-1 analog (Nakajima et al.) (CSCSSLMDKECVFFCHLDIIW; ends and bridges not checked; cysteine pairing not given here; UniProt P05305 53-73, looked up, variant Y13F)
endothelin activity [2]: show appreciable endothelin activity

[Phe^21 ]Et-1: known Et-1 analog (Nakajima et al.) (CSCSSLMDKECVYFCHLDIIF; ends and bridges not checked; cysteine pairing not given here; UniProt P05305 53-73, looked up, variant W21F)
endothelin activity [2]: show appreciable endothelin activity

[Tyr^21 ]Et-1: known Et-1 analog (Nakajima et al.) (CSCSSLMDKECVYFCHLDIIY; ends and bridges not checked; cysteine pairing not given here; UniProt P05305 53-73, looked up, variant W21Y)
endothelin activity [2]: show appreciable endothelin activity

B1: Endothelin 3 (peptide)
peptide: CTCFTYKDKECVYYCHLDIIW
modifications: disulfide 1-15, 3-11
Ppa (cm H2O), isolated perfused guinea pig lung, Et-3 at 10^-9 M without antagonist [8]: 3.8 cm H2O
